Source: patent publication US7291349B2, “Anti-dermatophytic preparation and use thereof” (priority 2003, dated 2007)

Test system: Candida albicans MTCC1637
Test: Broth assay (two fold dilution method) of garlic extract in combination with essential oils
Format: cell-based
Conditions: Table 3
Protocol: Following tables presents the results of evaluation of antifungal activities of water or solvent extracts of garlic in combinations with the essential oils. […] The combinations of essential oils and garlic extracts were made according to their MICs ([…]). […] But only selected oils viz. Mentha spicata van. […] The activity increased to several folds when these combinations were added to constituent of essential oil like menthyl acetate. […] The broth assay was carried out following the NCCLS documents published by National Committee for Clinical and Laboratory Standards (USA) and disc diffusion assay according to Bauer et al (Bauer et al, […], American Journal of Clinical Pathology, 45:493-496).

With `CC(=O)OC1CC(C)CCC1C(C)C` (stereo not shown) [Menthyl acetate] the FIC value (garlic extract 1/1600) was 1.0, the “Fold enhancement on the basis of Reduction in the MIC of oil in combination” value (garlic extract 1/1600) was 2 and the “Type of Interaction” value (garlic extract 1/1600) was “Indifference”. For the same compound, the “Reduction in the MIC of oil” value (garlic extract 1/1600 in combination) was 1/1600, the FIC value (garlic extract 1/3200) was 0.75 and the “Fold enhancement on the basis of Reduction in the MIC of oil in combination” value (garlic extract 1/3200) was 2. The “Type of Interaction” value (garlic extract 1/3200) was “Additive”, the “Reduction in the MIC of oil” value (garlic extract 1/3200 in combination) was 1/1600 and the FIC value (garlic extract 1/6400) was 0.625. The “Fold enhancement on the basis of Reduction in the MIC of oil in combination” value (garlic extract 1/6400) was 2, the “Type of Interaction” value (garlic extract 1/6400) was “Additive” and the “Reduction in the MIC of oil” value (garlic extract 1/6400 in combination) was 1/1600. The “MIC of essential oil/extract” value (alone, dilution) was 1/800.
